According to patent publication US9854800B2, “Herbicidal compositions comprising 4-amino-3-chloro-6-(4-chloro-2-fluoro-3-methoxyphenyl)-5-fluoropyridine-2-carboxylic acid or a derivative thereof and chlormequat chloride” (priority 2015, dated 2018):

Legend:
Assay type in all cases: in vivo
Conditions in all cases: 21 DAA
[1] = system: BRSNW = Brassica napus napus (winter) (winter rape); experiment: Post-emergent foliar herbicidal activity, greenhouse: BRSNW
Description: (§1) Seeds of the desired test plant species were planted in Sun Gro MetroMix® 306 planting mixture, which typically has a pH of 6.0 to 6.8 and an organic matter content of about 30 percent, in plastic pots with a surface area of 103.2 square centimeters (cm^2). When required to ensure good germination and healthy plants, a fungicide treatment and/or other chemical or physical treatment was applied. The plants were grown for 7-36 days in a greenhouse with an approximate 14 hour (h) photoperiod which was maintained at about 18° C. during the day and 17° C. during the night. Nutrients and water were added on a regular basis and supplemental lighting was provided with overhead metal halide 1000-Watt lamps as necessary. The plants were employed for testing when they reached the second or third true leaf stage.
(§2) Treatments consisted of the compound of formula (I) and a second herbicide alone (chlormequat). Weighed amounts of the compound of formula (I) were placed in 25 milliliter (mL) glass vials and dissolved in 4 mL of a 97:3 v/v mixture of acetone and DMSO to obtain concentrated stock solutions. Compound requirements are based upon a 12 mL application volume at a rate of 187 liters per hectare (L/ha). Spray solutions of the second herbicide and compound of formula (I) mixtures were prepared by adding the stock solutions to the appropriate amount of dilution solution to form 12 mL spray solution with active ingredients in two-way combinations. Formulated compounds were applied to the plant material with an overhead Mandel track sprayer equipped with 8002E nozzles calibrated to deliver 187 L/ha over an application area of 0.503 square meters (m^2) at a spray height of […] above average plant canopy. Control plants were sprayed in the same manner with the solvent blank.
(§3) The treated plants and control plants were placed in a greenhouse as described above and watered by sub-irrigation to prevent wash-off of the test compounds. After 20-22 days, the condition of the test plants as compared with that of the control plants was determined visually and scored on a scale of 0 to 100 percent where 0 corresponds to no injury and 100 corresponds to complete kill.
(§4) Colby's equation was used to determine the herbicidal effects expected from the mixtures (Colby, S. R. 1967. Calculation of the synergistic and antagonistic response of herbicide combinations. Weeds 15:20-22.) .
(§5) The following equation was used to calculate the expected activity of mixtures containing two active ingredients, A and B: Expected=A+B−(A×B/100)
(§6) A=observed efficacy of active ingredient A at the same concentration as used in the mixture.
(§7) B=observed efficacy of active ingredient B at the same concentration as used in the mixture.

[2] = system: CHEAL = Chenpodium album L. (common lambsquarters); experiment: Post-emergent foliar herbicidal activity, greenhouse: CHEAL
Description: as §1, §2, §3, §4, §5, §6, §7

[3] = system: CIRAR = Cirsium arvense (L.) Scop. (Canada thistle); experiment: Post-emergent foliar herbicidal activity, greenhouse: CIRAR
Description: as §1, §2, §3, §4, §5, §6, §7

[4] = system: GALAP = Galium aparine L. (catchweed bedstraw); experiment: Post-emergent foliar herbicidal activity, greenhouse: GALAP
Description: as §1, §2, §3, §4, §5, §6, §7

[5] = system: KCHSC = Kochia scoparia (L.) Schrad. (kochia); experiment: Post-emergent foliar herbicidal activity, greenhouse: KCHSC
Description: as §1, §2, §3, §4, §5, §6, §7

[6] = system: LAMPU = Lamium purpureum L. (purple deadnettle); experiment: Post-emergent foliar herbicidal activity, greenhouse: LAMPU
Description: as §1, §2, §3, §4, §5, §6, §7

[7] = system: MATCH = Matricaria recutita L. (wild chamomile); experiment: Post-emergent foliar herbicidal activity, greenhouse: MATCH
Description: as §1, §2, §3, §4, §5, §6, §7

[8] = system: PAPRH = Papaver rhoeas L. (common poppy); experiment: Post-emergent foliar herbicidal activity, greenhouse: PAPRH
Description: as §1, §2, §3, §4, §5, §6, §7

[9] = system: SASKR = Salsola tragus L. (Russian thistle); experiment: Post-emergent foliar herbicidal activity, greenhouse: SASKR
Description: as §1, §2, §3, §4, §5, §6, §7

[10] = system: SINAR = Sinapis arvensis L. (wild mustard); experiment: Post-emergent foliar herbicidal activity, greenhouse: SINAR
Description: as §1, §2, §3, §4, §5, §6, §7

[11] = system: STEME = Stellaria media (common chickweed); experiment: Post-emergent foliar herbicidal activity, greenhouse: STEME
Description: as §1, §2, §3, §4, §5, §6, §7

[12] = system: VERPE = Veronica persica Poir. (Persian speedwell); experiment: Post-emergent foliar herbicidal activity, greenhouse: VERPE
Description: as §1, §2, §3, §4, §5, §6, §7

[13] = system: VIOTR = Viola tricolor L. (wild violet); experiment: Post-emergent foliar herbicidal activity, greenhouse: VIOTR
Description: as §1, §2, §3, §4, §5, §6, §7

[14] = system: TRZAS = Triticum aestivum (spring) (spring wheat); experiment: Post-emergent foliar herbicidal activity, greenhouse: TRZAS (crop)
Description: as §1, §2, §3, §4, §5, §6, §7

[15] = system: HORVS = Hordeum vulgare L. (spring barley); experiment: Post-emergent foliar herbicidal activity, greenhouse: HORVS (crop)
Description: as §1, §2, §3, §4, §5, §6, §7

[16] = Compound I 0 + Chlormequat Chloride 279 g ai/ha
[17] = Compound I 0 + Chlormequat Chloride 558 g ai/ha
[18] = Compound I 0 + Chlormequat Chloride 1119 g ai/ha
[19] = Compound I 2.5 + Chlormequat Chloride 0 g ai/ha
[20] = Compound I 5 + Chlormequat Chloride 0 g ai/ha
[21] = Compound I 10 + Chlormequat Chloride 0 g ai/ha

C[N+](C)(C)CCCl.[Cl-] [Chlormequat Chloride, (2-chloroethyl)trimethylammonium chloride]
BRSNW Obs [1, 16]: 0% | BRSNW Obs [1, 17]: 3% | BRSNW Obs [1, 18]: 5% | CHEAL Obs [2, 16]: 0% | CHEAL Obs [2, 17]: 3% | CIRAR Obs [3, 16]: 5% | CIRAR Obs [3, 17]: 5% | CIRAR Obs [3, 18]: 10% | GALAP Obs [4, 16]: 3% | GALAP Obs [4, 17]: 5% | GALAP Obs [4, 18]: 20% | KCHSC Obs [5, 16]: 5% | KCHSC Obs [5, 17]: 5% | KCHSC Obs [5, 18]: 7% | LAMPU Obs [6, 16]: 15% | LAMPU Obs [6, 17]: 15% | LAMPU Obs [6, 18]: 30% | MATCH Obs [7, 16]: 0% | MATCH Obs [7, 17]: 0% | MATCH Obs [7, 18]: 27% | PAPRH Obs [8, 16]: 5% | PAPRH Obs [8, 17]: 5% | PAPRH Obs [8, 18]: 7% | SASKR Obs [9, 16]: 0% | SASKR Obs [9, 17]: 0% | SASKR Obs [9, 18]: 7% | SINAR Obs [10, 16]: 8% | SINAR Obs [10, 17]: 15% | STEME Obs [11, 16]: 8% | STEME Obs [11, 17]: 8% | STEME Obs [11, 18]: 7% | VERPE Obs [12, 16]: 10% | VERPE Obs [12, 17]: 10% | VERPE Obs [12, 18]: 13% | VIOTR Obs [13, 16]: 0% | VIOTR Obs [13, 17]: 0% | VIOTR Obs [13, 18]: 3% | TRZAS Obs [14, 16]: 0% | TRZAS Obs [14, 17]: 8% | HORVS Obs [15, 16]: 0% | HORVS Obs [15, 17]: 0%

COc1c(Cl)ccc(-c2nc(C(=O)OCc3ccccc3)c(Cl)c(N)c2F)c1F [Compound I, benzyl 4-amino-3-chloro-6-(4-chloro-2-fluoro-3-methoxyphenyl)-5-fluoropyridine-2-carboxylate]
BRSNW Obs [1, 19]: 18% | BRSNW Obs [1, 20]: 13% | BRSNW Obs [1, 21]: 13% | CHEAL Obs [2, 19]: 50% | CHEAL Obs [2, 20]: 58% | CIRAR Obs [3, 19]: 48% | CIRAR Obs [3, 20]: 39% | CIRAR Obs [3, 21]: 60% | GALAP Obs [4, 19]: 55% | GALAP Obs [4, 20]: 66% | GALAP Obs [4, 21]: 77% | KCHSC Obs [5, 19]: 20% | KCHSC Obs [5, 20]: 41% | KCHSC Obs [5, 21]: 62% | LAMPU Obs [6, 19]: 80% | LAMPU Obs [6, 20]: 86% | LAMPU Obs [6, 21]: 94% | MATCH Obs [7, 19]: 20% | MATCH Obs [7, 20]: 25% | MATCH Obs [7, 21]: 20% | PAPRH Obs [8, 19]: 48% | PAPRH Obs [8, 20]: 28% | PAPRH Obs [8, 21]: 35% | SASKR Obs [9, 19]: 15% | SASKR Obs [9, 20]: 50% | SASKR Obs [9, 21]: 67% | SINAR Obs [10, 19]: 70% | SINAR Obs [10, 20]: 73% | STEME Obs [11, 19]: 25% | STEME Obs [11, 20]: 25% | STEME Obs [11, 21]: 27% | VERPE Obs [12, 19]: 20% | VERPE Obs [12, 20]: 17% | VERPE Obs [12, 21]: 23% | VIOTR Obs [13, 19]: 30% | VIOTR Obs [13, 20]: 20% | VIOTR Obs [13, 21]: 20% | TRZAS Obs [14, 19]: 0% | TRZAS Obs [14, 20]: 0% | HORVS Obs [15, 19]: 0% | HORVS Obs [15, 20]: 0%
